Measurements published in ChEMBL document CHEMBL1201862, “PubChem BioAssay data set” (2004).
Calls of active or inactive are those of the source.

Columns and labels:
[1] = test system: Streptococcus; assay: Group A Streptococcus viability loss, dose response, counter-screen for streptokinase expression inhibitor project, luminescence, BacTiterGlo (AID 1915); type: functional, organism-based;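 further: potency for reduction of bacterial viability or growth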
[2] = test system: INS1; assay: beta cell apoptosis inhibitors, cytokine rescue, dose response, luminescence, retest (AID 449756); type: functional, cell-based; conditions: Rattus norvegicus;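 further: cell death triggered by IL-1 beta plus TNF-alpha plus IFN-gamma mixture; protective hits raise ATP signal compared with cytokine alone wells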
[3] = NIH-3T3 fibroblast cytotoxicity, dose response, cytotoxicity control, cell-based, fluorescence, Alamar Blue, secondary assay (AID 2327); type: functional;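 further: NIH-3T3 mouse fibroblasts cultured with fluconazole at 8 µg/mL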
[4] = biological target: T1, Sentrin-specific protease 6 (Homo sapiens, UniProt Q9GZR1); type: functional;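 further: Luminescence-based dose-response confirmatory assay of SENP6 inhibition, following up an ultra-high-throughput screen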
T1 sequence (Q9GZR1 whole entry): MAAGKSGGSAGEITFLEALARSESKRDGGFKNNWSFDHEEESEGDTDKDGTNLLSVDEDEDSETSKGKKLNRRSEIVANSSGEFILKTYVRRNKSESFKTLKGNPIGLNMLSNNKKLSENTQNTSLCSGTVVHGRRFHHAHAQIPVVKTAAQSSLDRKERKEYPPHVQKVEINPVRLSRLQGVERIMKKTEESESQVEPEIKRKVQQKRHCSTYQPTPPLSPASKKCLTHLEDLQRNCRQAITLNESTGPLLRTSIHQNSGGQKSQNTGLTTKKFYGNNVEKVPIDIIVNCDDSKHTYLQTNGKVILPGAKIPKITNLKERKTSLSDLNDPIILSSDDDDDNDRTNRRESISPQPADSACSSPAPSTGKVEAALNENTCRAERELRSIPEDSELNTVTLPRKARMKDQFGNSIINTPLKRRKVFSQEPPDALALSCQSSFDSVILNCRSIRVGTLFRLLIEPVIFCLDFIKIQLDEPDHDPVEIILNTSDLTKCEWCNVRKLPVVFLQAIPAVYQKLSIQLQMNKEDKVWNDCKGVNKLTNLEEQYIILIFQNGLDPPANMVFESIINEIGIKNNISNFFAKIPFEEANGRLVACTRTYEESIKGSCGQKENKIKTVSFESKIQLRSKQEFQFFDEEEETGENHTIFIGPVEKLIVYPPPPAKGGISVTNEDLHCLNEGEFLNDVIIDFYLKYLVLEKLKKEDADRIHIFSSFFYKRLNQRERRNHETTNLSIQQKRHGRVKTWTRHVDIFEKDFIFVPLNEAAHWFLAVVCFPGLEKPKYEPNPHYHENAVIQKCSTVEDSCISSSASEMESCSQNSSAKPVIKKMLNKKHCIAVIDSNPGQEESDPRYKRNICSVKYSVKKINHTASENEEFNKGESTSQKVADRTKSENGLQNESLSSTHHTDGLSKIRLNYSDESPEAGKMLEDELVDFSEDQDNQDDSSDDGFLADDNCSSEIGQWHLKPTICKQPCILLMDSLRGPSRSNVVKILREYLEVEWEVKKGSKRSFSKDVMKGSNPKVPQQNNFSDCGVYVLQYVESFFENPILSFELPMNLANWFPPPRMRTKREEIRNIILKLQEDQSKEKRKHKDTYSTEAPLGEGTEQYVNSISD

[5] = biological target: T2, Alkaline phosphatase, tissue-nonspecific isozyme (Homo sapiens, UniProt P05186); assay: TNAP enzyme activators, dose response, selectivity assay for human IAP activator project, biochemical, TNAP isozyme, human IAP uHTS hits (AID 488886); type: functional;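 further: potency of compounds raising TNAP activity as a selectivity check on IAP activators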
T2 sequence (P05186 whole entry): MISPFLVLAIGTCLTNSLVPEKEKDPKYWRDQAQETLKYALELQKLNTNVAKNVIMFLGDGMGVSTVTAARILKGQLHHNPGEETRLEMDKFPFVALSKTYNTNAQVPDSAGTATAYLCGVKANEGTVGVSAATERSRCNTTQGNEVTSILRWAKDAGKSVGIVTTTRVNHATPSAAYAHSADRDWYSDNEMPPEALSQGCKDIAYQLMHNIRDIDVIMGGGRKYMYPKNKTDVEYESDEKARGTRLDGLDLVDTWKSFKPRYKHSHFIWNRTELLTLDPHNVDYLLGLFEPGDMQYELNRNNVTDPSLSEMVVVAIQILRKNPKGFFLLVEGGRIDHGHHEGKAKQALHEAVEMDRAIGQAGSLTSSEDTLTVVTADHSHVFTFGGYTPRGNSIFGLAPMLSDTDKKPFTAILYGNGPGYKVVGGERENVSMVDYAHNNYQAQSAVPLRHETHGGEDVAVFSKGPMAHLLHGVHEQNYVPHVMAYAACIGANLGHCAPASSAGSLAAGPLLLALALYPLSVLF

[6] = biological target: Calcium/calmodulin-dependent protein kinase type II subunit alpha (Homo sapiens, UniProt Q9UQM7); assay: Navigating the Kinome. Panel member name: CAMK2A; type: functional
[7] = biological target: Tyrosine-protein kinase JAK3 (Homo sapiens, UniProt P52333); type: functional
[8] = biological target: Mitogen-activated protein kinase 9 (Homo sapiens, UniProt P45984); type: functional;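 further: value from a kinome panel profiling assay, MAPK9 panel entry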
[9] = biological target: Serine/threonine-protein kinase pim-1 (Homo sapiens, UniProt P11309); type: functional
[10] = biological target: Fibroblast growth factor receptor 1 (Homo sapiens, UniProt P11362); type: functional
[11] = biological target: Protein kinase C theta type (Homo sapiens, UniProt Q04759); assay: Navigating the Kinome. Panel member name: PRKCQ; type: functional
[12] = biological target: Dual specificity protein kinase CLK4 (Homo sapiens, UniProt Q9HAZ1); type: functional
[13] = biological target: BDNF/NT-3 growth factors receptor (Homo sapiens, UniProt Q16620); type: functional;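 further: NTRK2 measured as one member of a broad kinome-wide kinase profiling panel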
[14] = biological target: Vascular endothelial growth factor receptor 1 (Homo sapiens, UniProt P17948); type: functional;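 further: measured within a kinome-wide profiling panel, FLT1 as the panel member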
[15] = biological target: Glycogen synthase kinase-3 beta (Homo sapiens, UniProt P49841); type: functional;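 further: value comes from a broad kinome profiling panel, with GSK3B as the panel member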
Glycogen synthase kinase-3 beta, sequence (P49841 whole entry): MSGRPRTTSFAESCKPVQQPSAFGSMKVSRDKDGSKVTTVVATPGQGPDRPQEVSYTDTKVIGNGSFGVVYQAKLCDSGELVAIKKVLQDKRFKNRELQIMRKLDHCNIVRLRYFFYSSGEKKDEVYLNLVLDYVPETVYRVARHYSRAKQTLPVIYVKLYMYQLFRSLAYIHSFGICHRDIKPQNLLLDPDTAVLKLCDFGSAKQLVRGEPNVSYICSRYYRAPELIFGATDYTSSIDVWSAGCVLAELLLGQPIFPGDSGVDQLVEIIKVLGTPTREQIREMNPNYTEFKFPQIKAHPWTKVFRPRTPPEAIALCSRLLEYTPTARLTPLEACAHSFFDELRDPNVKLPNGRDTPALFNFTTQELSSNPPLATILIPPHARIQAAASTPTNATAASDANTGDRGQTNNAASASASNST

Tyrosine-protein kinase JAK3, sequence (P52333 whole entry): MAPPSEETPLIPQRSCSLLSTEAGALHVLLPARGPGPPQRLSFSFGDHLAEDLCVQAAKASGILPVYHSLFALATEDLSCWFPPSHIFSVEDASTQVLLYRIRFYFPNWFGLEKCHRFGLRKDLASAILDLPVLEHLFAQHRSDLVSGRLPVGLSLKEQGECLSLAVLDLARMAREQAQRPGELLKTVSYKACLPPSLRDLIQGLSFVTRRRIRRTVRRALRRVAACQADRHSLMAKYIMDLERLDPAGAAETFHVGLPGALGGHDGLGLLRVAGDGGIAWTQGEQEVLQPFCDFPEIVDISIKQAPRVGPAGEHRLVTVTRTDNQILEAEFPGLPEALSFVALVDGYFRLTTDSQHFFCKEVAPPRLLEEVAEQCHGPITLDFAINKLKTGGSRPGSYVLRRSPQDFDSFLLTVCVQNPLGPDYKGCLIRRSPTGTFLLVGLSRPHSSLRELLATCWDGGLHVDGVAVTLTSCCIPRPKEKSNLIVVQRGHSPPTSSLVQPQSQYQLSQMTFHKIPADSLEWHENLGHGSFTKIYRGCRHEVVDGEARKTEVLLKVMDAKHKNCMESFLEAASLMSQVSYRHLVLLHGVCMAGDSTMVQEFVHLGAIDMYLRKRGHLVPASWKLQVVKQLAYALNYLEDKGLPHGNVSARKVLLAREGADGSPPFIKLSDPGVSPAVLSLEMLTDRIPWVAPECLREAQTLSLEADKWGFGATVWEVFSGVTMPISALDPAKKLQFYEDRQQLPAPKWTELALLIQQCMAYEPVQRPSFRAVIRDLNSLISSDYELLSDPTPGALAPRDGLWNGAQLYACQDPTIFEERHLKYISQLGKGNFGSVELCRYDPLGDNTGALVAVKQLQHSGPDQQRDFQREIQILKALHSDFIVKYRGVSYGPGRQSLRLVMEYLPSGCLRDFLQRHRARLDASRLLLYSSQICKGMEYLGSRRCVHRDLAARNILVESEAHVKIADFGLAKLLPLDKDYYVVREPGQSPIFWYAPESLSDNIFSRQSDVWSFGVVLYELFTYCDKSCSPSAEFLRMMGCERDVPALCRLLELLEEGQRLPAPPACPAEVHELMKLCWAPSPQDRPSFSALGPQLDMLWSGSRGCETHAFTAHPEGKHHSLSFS
BDNF/NT-3 growth factors receptor, sequence (Q16620 whole entry): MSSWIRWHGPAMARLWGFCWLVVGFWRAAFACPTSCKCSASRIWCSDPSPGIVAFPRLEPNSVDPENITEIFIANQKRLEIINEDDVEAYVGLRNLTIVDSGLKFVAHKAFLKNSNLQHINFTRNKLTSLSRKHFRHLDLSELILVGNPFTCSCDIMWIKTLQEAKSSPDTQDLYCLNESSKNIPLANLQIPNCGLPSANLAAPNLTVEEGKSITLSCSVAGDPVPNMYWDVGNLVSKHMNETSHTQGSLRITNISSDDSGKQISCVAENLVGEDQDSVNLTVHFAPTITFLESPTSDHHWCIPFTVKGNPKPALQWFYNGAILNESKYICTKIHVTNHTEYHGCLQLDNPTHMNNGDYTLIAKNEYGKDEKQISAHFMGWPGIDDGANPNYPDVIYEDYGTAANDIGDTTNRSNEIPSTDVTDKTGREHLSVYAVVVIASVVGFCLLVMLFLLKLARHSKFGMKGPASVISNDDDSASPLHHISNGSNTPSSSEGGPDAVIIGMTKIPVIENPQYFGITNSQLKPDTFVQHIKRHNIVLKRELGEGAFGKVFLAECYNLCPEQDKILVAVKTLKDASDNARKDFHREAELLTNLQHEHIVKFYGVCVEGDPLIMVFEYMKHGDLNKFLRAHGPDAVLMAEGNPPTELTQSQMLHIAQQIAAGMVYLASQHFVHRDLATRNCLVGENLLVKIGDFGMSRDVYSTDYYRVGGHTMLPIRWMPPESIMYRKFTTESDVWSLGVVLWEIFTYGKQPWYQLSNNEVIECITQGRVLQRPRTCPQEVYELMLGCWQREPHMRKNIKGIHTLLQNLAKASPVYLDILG
Calcium/calmodulin-dependent protein kinase type II subunit alpha, sequence (Q9UQM7 whole entry): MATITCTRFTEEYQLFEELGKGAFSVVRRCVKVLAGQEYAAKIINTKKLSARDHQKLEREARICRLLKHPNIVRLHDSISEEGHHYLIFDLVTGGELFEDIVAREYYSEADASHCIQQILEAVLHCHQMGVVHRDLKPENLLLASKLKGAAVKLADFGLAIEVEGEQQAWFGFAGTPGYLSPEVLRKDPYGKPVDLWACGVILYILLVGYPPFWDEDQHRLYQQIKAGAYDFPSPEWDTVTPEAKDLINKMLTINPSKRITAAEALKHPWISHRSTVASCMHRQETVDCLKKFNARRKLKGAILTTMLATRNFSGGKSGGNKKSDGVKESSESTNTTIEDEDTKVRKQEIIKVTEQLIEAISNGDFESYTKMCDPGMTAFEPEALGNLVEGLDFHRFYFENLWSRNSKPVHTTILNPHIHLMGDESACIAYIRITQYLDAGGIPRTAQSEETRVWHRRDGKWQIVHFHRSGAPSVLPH
Dual specificity protein kinase CLK4, sequence (Q9HAZ1 whole entry): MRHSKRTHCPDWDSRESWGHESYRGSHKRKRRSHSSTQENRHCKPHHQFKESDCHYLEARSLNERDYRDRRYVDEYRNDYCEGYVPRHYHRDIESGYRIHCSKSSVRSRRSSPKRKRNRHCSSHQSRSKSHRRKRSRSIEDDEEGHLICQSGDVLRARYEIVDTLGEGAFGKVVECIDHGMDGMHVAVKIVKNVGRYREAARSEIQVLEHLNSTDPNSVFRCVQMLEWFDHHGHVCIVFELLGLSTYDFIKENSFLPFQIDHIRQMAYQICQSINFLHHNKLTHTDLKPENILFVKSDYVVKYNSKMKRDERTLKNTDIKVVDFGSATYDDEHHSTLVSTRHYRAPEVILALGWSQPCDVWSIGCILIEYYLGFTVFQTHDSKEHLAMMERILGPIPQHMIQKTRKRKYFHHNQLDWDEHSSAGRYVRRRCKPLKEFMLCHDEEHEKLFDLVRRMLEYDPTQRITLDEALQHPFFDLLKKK
Mitogen-activated protein kinase 9, sequence (P45984 whole entry): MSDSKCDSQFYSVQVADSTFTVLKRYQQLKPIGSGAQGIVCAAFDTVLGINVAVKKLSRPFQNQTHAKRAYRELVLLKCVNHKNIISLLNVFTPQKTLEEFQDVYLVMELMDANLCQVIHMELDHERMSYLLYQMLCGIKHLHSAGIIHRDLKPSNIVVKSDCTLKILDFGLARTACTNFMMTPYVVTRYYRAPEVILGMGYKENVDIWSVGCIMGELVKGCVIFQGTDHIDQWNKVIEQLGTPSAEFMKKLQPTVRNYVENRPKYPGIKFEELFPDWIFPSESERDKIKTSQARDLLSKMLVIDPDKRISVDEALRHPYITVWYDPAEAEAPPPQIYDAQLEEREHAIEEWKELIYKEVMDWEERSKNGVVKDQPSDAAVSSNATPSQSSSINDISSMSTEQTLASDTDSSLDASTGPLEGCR
Protein kinase C theta type, sequence (Q04759 whole entry): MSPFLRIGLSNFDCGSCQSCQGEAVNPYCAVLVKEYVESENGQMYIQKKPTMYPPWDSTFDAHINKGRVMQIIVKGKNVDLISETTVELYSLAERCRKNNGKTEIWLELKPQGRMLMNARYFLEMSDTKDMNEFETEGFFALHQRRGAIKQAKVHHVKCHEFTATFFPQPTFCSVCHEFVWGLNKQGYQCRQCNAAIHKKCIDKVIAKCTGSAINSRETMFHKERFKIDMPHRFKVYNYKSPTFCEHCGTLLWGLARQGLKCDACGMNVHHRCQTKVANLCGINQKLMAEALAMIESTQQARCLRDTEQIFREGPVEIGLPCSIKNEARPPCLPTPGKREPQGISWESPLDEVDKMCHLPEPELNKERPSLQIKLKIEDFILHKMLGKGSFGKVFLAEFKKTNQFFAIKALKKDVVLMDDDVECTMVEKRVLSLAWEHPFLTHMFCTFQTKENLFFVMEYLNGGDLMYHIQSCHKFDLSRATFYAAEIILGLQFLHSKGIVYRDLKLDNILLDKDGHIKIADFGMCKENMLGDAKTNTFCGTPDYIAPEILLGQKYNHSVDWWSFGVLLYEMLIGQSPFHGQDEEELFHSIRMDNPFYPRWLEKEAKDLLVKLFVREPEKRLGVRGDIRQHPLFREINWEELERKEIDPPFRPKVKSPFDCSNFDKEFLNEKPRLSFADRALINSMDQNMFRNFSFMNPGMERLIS
Serine/threonine-protein kinase pim-1, sequence (P11309 whole entry): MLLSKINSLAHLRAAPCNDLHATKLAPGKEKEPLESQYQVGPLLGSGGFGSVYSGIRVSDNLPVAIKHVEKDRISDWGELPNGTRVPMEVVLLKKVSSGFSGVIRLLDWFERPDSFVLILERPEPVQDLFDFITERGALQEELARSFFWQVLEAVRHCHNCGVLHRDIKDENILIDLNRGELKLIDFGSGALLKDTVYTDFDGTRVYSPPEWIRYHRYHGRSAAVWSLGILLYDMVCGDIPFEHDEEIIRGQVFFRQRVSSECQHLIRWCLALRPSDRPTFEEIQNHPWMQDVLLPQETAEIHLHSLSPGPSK

| SMILES | EC50 [1] | AC50 [2] | EC50 [3] | IC50 [4] | Ki [6] | Ki [7] | Ki [8] | Ki [9] | Ki [10] | Ki [11] | Ki [12] | Ki [13] | Ki [14] | Ki [15] | further results |
| --- | --- | --- | --- | --- | --- | --- | --- | --- | --- | --- | --- | --- | --- | --- | --- |
| CNC[C@H](Cc1ccccc1)NC[C@@H](Cc1cccc2ccccc12)NCCc1ccc(C)cc1 | 7.51 µM (active) | 7.38 µM (active) | > 160 µM (inconclusive) |  |  |  |  |  |  |  |  |  |  |  |  |
| Nc1nnc2c(n1)CCCC2 |  |  |  | 7.37 µM (active) |  |  |  |  |  |  |  |  |  |  |  |
| O=C(N/N=C/c1c(O)ccc2ccccc12)c1[nH]ncc1Br |  | 0.558 µM (active) |  | > 100 µM (inactive) |  |  |  |  |  |  |  |  |  |  | EC50 [5]: > 100 µM (inactive) |
| Nc1c(-c2ccc(NC(=O)Nc3cccc(C(F)(F)F)c3)cc2)cnc2c(-c3ccc4c(c3)OCO4)cnn12 |  |  |  |  | > 3.98 µM (inactive) | > 5.01 µM (inactive) | > 3.98 µM (inactive) | > 6.31 µM (inactive) | > 3.98 µM (inactive) | > 2.51 µM (inactive) | > 2.51 µM (inactive) | 0.0126 µM (active) | 0.251 µM (active) | > 3.98 µM (inactive) |  |
| O=C(Nc1cc(-c2c[nH]c3ncccc23)cc(Cl)n1)c1ccccc1 |  |  |  |  | > 7.94 µM (inactive) | > 5.01 µM (inactive) | > 3.98 µM (inactive) | > 3.98 µM (inactive) | > 3.98 µM (inactive) | > 2.51 µM (inactive) | 0.0251 µM (active) | > 3.98 µM (inactive) | > 3.98 µM (inactive) | > 3.98 µM (inactive) |  |
| CCN1C(=Cc2sc3ccccc3[n+]2C)C=Cc2cccc(C)c21 | 8.99 µM (active) |  | 15.5 µM (inconclusive) |  |  |  |  |  |  |  |  |  |  |  |  |
